Measurements from patent publication US10611750B2, “Tetrahydroquinoline compositions as bet bromodomain inhibitors” (FORMA Therapeutics, Inc., priority 2013, dated 2020).

Key:
[1] = biological target: T1, BRD4 Bromodomain 1 (BRD4 BD1) (Homo sapiens, UniProt O60885); test: AlphaScreen binding assay, BRD4 BD1; settings: His-tagged BRD4 BD1 50 nM, biotinylated H4 (1-21) K5/8/12/16 tetra-acetylated peptide 50 nM, compounds listed under IC50 range headings
T1 construct: 44-168 and BRD4 BD2
Outline: (§1)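 Compound dilution series were mixed with His-tagged BRD4 bromodomain and biotinylated tetra-acetylated H4 (1-21) peptide at pH 7.3 (BD1 and peptide at 50 nM, BD2 and peptide at 100 nM). Donor and acceptor beads were then added, and plates were equilibrated at least 1 h before reading. IC50 values were fitted with a four-parameter logistic model.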

[2] = biological target: T2, BRD4 Bromodomain 2 (BRD4 BD2) (Homo sapiens, UniProt O60885); test: AlphaScreen binding assay, BRD4 BD2; settings: His-tagged BRD4 BD2 100 nM, biotinylated H4 (1-21) K5/8/12/16 tetra-acetylated peptide 100 nM, compounds listed under IC50 range headings
T2 construct: 333-460 were cloned, expressed, and purified to homogeneity
Outline: as §1

[3] = tested on: acute myelocytic leukemia (AML) cell line MV4-11; test: Oncology cell growth assay (3-day proliferation, CellTiter-Glo); type: cell-based; settings: Homo sapiens, MV4-11, 72 h, MV4-11 cells, 3000 cells/well, compounds listed under IC50 range headings, read-out: MV411 IC50 (gIC50, inhibition of proliferation)
Outline: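 72 h, 37° C, 5% CO2; MV4-11, 3000 cells/well, RPMI 1640 + 10% FBS. Compound final 10, 3.3, 1.1, 0.37, 0.12, 0.041, 0.013, 0.0045 μM. Readout CellTiter-Glo luminescence; gIC50 by 4-parameter logistic fit, normalised to DMSO and no-cell background.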

Compound | IC50 [1] [nM] | IC50 [2] [nM] | IC50 [3] [nM]
CC(=O)N1c2ccc(-c3ccc(N4CCCS4(=O)=O)cc3)c(Oc3ncc(F)cn3)c2CC[C@@H]1C [I-553] | 100 to 1000 | < 50 | < 500
COC(=O)N1c2ccc(-c3cnn(CCS(C)(=O)=O)c3)c(Oc3ccc(C(F)(F)F)cn3)c2CC[C@@H]1C [I-554] | 1000 to 10000 | 50 to 500 | > 1000
COC(=O)N1c2ccc(-c3cnn(CC(C)(C)O)c3)c(Oc3ccc(C(F)(F)F)cn3)c2CC[C@@H]1C [I-555] | 1000 to 10000 | 50 to 500 | > 1000
COC(=O)N1c2ccc(-c3cnn(CCO)c3)c(Oc3ccc(C(F)(F)F)cn3)c2CC[C@@H]1C [I-556] | 1000 to 10000 | 50 to 500 | 500 to 1000
COC(=O)N1c2ccc(-c3cnn(C4CC4)c3)c(Oc3ccc(C(F)(F)F)cn3)c2CC[C@@H]1C [I-557] | 1000 to 10000 | 50 to 500 | > 1000
COC(=O)N1c2ccc(-c3cnn(CCS(C)(=O)=O)c3)c(Oc3cnccn3)c2CC[C@@H]1C [I-558] | 1000 to 10000 | 50 to 500 | > 1000
COC(=O)N1c2ccc(-c3cnn(CC(C)(C)O)c3)c(Oc3cnccn3)c2CC[C@@H]1C [I-559] | 1000 to 10000 | 50 to 500 | 500 to 1000
COC(=O)N1c2ccc(-c3cnn(CCO)c3)c(Oc3cnccn3)c2CC[C@@H]1C [I-560] | 1000 to 10000 | 50 to 500 | 500 to 1000
COC(=O)N1c2ccc(-c3cnn(C4CC4)c3)c(Oc3cnccn3)c2CC[C@@H]1C [I-561] | 1000 to 10000 | 50 to 500 | 500 to 1000
COC(=O)N1c2ccc(-c3cnn(CCS(C)(=O)=O)c3)c(Oc3ncccc3C(F)(F)F)c2CC[C@@H]1C [I-562] | 1000 to 10000 | 50 to 500 | 500 to 1000
COC(=O)N1c2ccc(-c3cnn(CC(C)(C)O)c3)c(Oc3ncccc3C(F)(F)F)c2CC[C@@H]1C [I-563] | 1000 to 10000 | < 50 | > 1000
COC(=O)N1c2ccc(-c3cnn(CCO)c3)c(Oc3ncccc3C(F)(F)F)c2CC[C@@H]1C [I-564] | 1000 to 10000 | 50 to 500 | 500 to 1000
COC(=O)N1c2ccc(-c3cnn(C4CC4)c3)c(Oc3ncccc3C(F)(F)F)c2CC[C@@H]1C [I-565] | 1000 to 10000 | 50 to 500 | 500 to 1000
COC(=O)N1c2ccc(-c3cnn(CCS(C)(=O)=O)c3)c(Oc3ncccc3C#N)c2CC[C@@H]1C [I-566] | 1000 to 10000 | 50 to 500 | > 1000
COC(=O)N1c2ccc(-c3cnn(CC(C)(C)O)c3)c(Oc3ncccc3C#N)c2CC[C@@H]1C [I-567] | 1000 to 10000 | 50 to 500 | 500 to 1000
COC(=O)N1c2ccc(-c3cnn(CCO)c3)c(Oc3ncccc3C#N)c2CC[C@@H]1C [I-568] | 1000 to 10000 | 50 to 500 | < 500
COC(=O)N1c2ccc(-c3cnn(C4CC4)c3)c(Oc3ncccc3C#N)c2CC[C@@H]1C [I-569] | 1000 to 10000 | 50 to 500 | < 500
COC(=O)N1c2ccc(-c3cnn(CCS(C)(=O)=O)c3)c(Oc3ncc(C4CC4)cn3)c2CC[C@@H]1C [I-570] | 1000 to 10000 | 50 to 500 | > 1000
COC(=O)N1c2ccc(-c3cnn(CC(C)(C)O)c3)c(Oc3ncc(C4CC4)cn3)c2CC[C@@H]1C [I-571] | 1000 to 10000 | 50 to 500 | 500 to 1000
COC(=O)N1c2ccc(-c3cnn(CCO)c3)c(Oc3ncc(C4CC4)cn3)c2CC[C@@H]1C [I-572] | 1000 to 10000 | 50 to 500 | < 500
COC(=O)N1c2ccc(-c3cnn(C4CC4)c3)c(Oc3ncc(C4CC4)cn3)c2CC[C@@H]1C [I-573] | 1000 to 10000 | 50 to 500 | 500 to 1000

Compound | IC50 [1] [nM] | IC50 [2] [nM] | IC50 [3] [nM]
COC(=O)N1c2ccc(-c3cnn(CCS(C)(=O)=O)c3)c(Oc3ncc(F)cn3)c2CC[C@@H]1C [I-574] | 1000 to 10000 | 50 to 500 | 500 to 1000
COC(=O)N1c2ccc(-c3cnn(CC(C)(C)O)c3)c(Oc3ncc(F)cn3)c2CC[C@@H]1C [I-575] | 1000 to 10000 | 50 to 500 | 500 to 1000
COC(=O)N1c2ccc(-c3cnn(CCO)c3)c(Oc3ncc(F)cn3)c2CC[C@@H]1C [I-576] | 1000 to 10000 | ≥ 500 | > 1000
COC(=O)N1c2ccc(-c3cnn(C4CC4)c3)c(Oc3ncc(F)cn3)c2CC[C@@H]1C [I-577] | 1000 to 10000 | 50 to 500 | < 500
COC(=O)N1c2ccc(-c3cnn(CCS(C)(=O)=O)c3)c(Oc3ncc(C(F)(F)F)cn3)c2CC[C@@H]1C [I-578] | 1000 to 10000 | 50 to 500 | > 1000
COC(=O)N1c2ccc(-c3cnn(CC(C)(C)O)c3)c(Oc3ncc(C(F)(F)F)cn3)c2CC[C@@H]1C [I-579] | 1000 to 10000 | 50 to 500 | > 1000
COC(=O)N1c2ccc(-c3cnn(CCO)c3)c(Oc3ncc(C(F)(F)F)cn3)c2CC[C@@H]1C [I-580] | 1000 to 10000 | 50 to 500 | 500 to 1000
COC(=O)N1c2ccc(-c3cnn(C4CC4)c3)c(Oc3ncc(C(F)(F)F)cn3)c2CC[C@@H]1C [I-581] | 1000 to 10000 | 50 to 500 | > 1000
COC(=O)N1c2ccc(-c3cnn(CCS(C)(=O)=O)c3)c(Oc3ncc(C)cn3)c2CC[C@@H]1C [I-582] | 1000 to 10000 | 50 to 500 | > 1000
COC(=O)N1c2ccc(-c3cnn(CC(C)(C)O)c3)c(Oc3ncc(C)cn3)c2CC[C@@H]1C [I-583] | 1000 to 10000 | 50 to 500 | < 500
COC(=O)N1c2ccc(-c3cnn(CCO)c3)c(Oc3ncc(C)cn3)c2CC[C@@H]1C [I-584] | 1000 to 10000 | 50 to 500 | 500 to 1000
COC(=O)N1c2ccc(-c3cnn(C4CC4)c3)c(Oc3ncc(C)cn3)c2CC[C@@H]1C [I-585] | 100 to 1000 | 50 to 500 | < 500
COC(=O)N1c2ccc(-c3cnn(CCS(C)(=O)=O)c3)c(Oc3ncccc3C(N)=O)c2CC[C@@H]1C [I-586] | 1000 to 10000 | 50 to 500 | > 1000
COC(=O)N1c2ccc(-c3cnn(C4CC4)c3)c(Oc3ncccc3C(N)=O)c2CC[C@@H]1C [I-587] | 1000 to 10000 | 50 to 500 | 500 to 1000
COC(=O)N1c2ccc(-c3cnn(CCS(C)(=O)=O)c3)c(Oc3ncc(C(F)(F)F)cc3F)c2CC[C@@H]1C [I-588] | 1000 to 10000 | 50 to 500 | > 1000
COC(=O)N1c2ccc(-c3cnn(CC(C)(C)O)c3)c(Oc3ncc(C(F)(F)F)cc3F)c2CC[C@@H]1C [I-589] | 1000 to 10000 | 50 to 500 | 500 to 1000
COC(=O)N1c2ccc(-c3cnn(CCO)c3)c(Oc3ncc(C(F)(F)F)cc3F)c2CC[C@@H]1C [I-590] | 1000 to 10000 | 50 to 500 | 500 to 1000
COC(=O)N1c2ccc(-c3cnn(C4CC4)c3)c(Oc3ncc(C(F)(F)F)cc3F)c2CC[C@@H]1C [I-591] | 1000 to 10000 | 50 to 500 | 500 to 1000
CC(=O)N1c2ccc(-c3cnn(C4CC4)c3)c(Oc3ccccc3)c2CC[C@@H]1C [I-594] | 100 to 1000 | < 50 | < 500
CC(=O)N1c2ccc(-c3cnn(C4CC4)c3)c(Oc3ccc(C(=O)N(C)C)cc3)c2CC[C@@H]1C [I-595] | 100 to 1000 | 50 to 500 | < 500
